Assay results published in the NIST ThermoML archive (doi:10.1016/j.jct.2004.12.014).
± gives the expanded uncertainty stated by the source.

Experiments:
[1] = xn = mol fraction of the nth substance listed; conditions: 318.15 K, 101 kPa, Liquid
[2] = excess molar enthalpy (molar enthalpy of mixing); xn = mol fraction of the nth substance listed; conditions: 318.15 K, 101 kPa, Liquid

SMILES: CCCCCOC(=O)CC [pentyl propanoate] + CCCCCCCCCCCCCCC
- excess molar volume ([1]; x1 = 0.0451): 1.37e-07 ± 1.6e-08 m3/mol
- excess molar volume ([1]; x1 = 0.1011): 2.83e-07 ± 1.7e-08 m3/mol
- excess molar volume ([1]; x1 = 0.1866): 4.41e-07 ± 1.8e-08 m3/mol
- excess molar volume ([1]; x1 = 0.2665): 5.63e-07 ± 1.8e-08 m3/mol
- excess molar volume ([1]; x1 = 0.341): 6.68e-07 ± 1.9e-08 m3/mol
- excess molar volume ([1]; x1 = 0.4128): 7.28e-07 ± 1.9e-08 m3/mol
- excess molar volume ([1]; x1 = 0.478): 7.64e-07 ± 1.9e-08 m3/mol
- excess molar volume ([1]; x1 = 0.5422): 7.75e-07 ± 1.9e-08 m3/mol
- excess molar volume ([1]; x1 = 0.5989): 7.59e-07 ± 1.9e-08 m3/mol
- excess molar volume ([1]; x1 = 0.6522): 7.35e-07 ± 1.9e-08 m3/mol
- excess molar volume ([1]; x1 = 0.7029): 6.74e-07 ± 1.9e-08 m3/mol
- excess molar volume ([1]; x1 = 0.7542): 6.2e-07 ± 1.8e-08 m3/mol
- excess molar volume ([1]; x1 = 0.7997): 5.33e-07 ± 1.8e-08 m3/mol
- excess molar volume ([1]; x1 = 0.8438): 4.51e-07 ± 1.8e-08 m3/mol
- excess molar volume ([1]; x1 = 0.8845): 3.62e-07 ± 1.7e-08 m3/mol
- excess molar volume ([1]; x1 = 0.924): 2.42e-07 ± 1.7e-08 m3/mol
- excess molar volume ([1]; x1 = 0.9627): 1.57e-07 ± 1.6e-08 m3/mol
- excess molar enthalpy ([2]; x1 = 0.0757): 0.0662 ± 0.00143 kcal/mol
- excess molar enthalpy ([2]; x1 = 0.1563): 0.124 ± 0.00232 kcal/mol
- excess molar enthalpy ([2]; x1 = 0.2383): 0.174 ± 0.00311 kcal/mol
- excess molar enthalpy ([2]; x1 = 0.3152): 0.212 ± 0.00359 kcal/mol
- excess molar enthalpy ([2]; x1 = 0.3915): 0.238 ± 0.00406 kcal/mol
- excess molar enthalpy ([2]; x1 = 0.4596): 0.251 ± 0.0043 kcal/mol
- excess molar enthalpy ([2]; x1 = 0.52): 0.254 ± 0.0043 kcal/mol
- excess molar enthalpy ([2]; x1 = 0.5607): 0.251 ± 0.0043 kcal/mol
- excess molar enthalpy ([2]; x1 = 0.5843): 0.246 ± 0.0043 kcal/mol
- excess molar enthalpy ([2]; x1 = 0.6262): 0.236 ± 0.00406 kcal/mol
- excess molar enthalpy ([2]; x1 = 0.6747): 0.22 ± 0.00382 kcal/mol
- excess molar enthalpy ([2]; x1 = 0.7264): 0.2 ± 0.00359 kcal/mol
- excess molar enthalpy ([2]; x1 = 0.7806): 0.174 ± 0.00311 kcal/mol
- excess molar enthalpy ([2]; x1 = 0.8352): 0.141 ± 0.00263 kcal/mol
- excess molar enthalpy ([2]; x1 = 0.892): 0.0996 ± 0.00194 kcal/mol
- excess molar enthalpy ([2]; x1 = 0.9477): 0.0535 ± 0.00124 kcal/mol

SMILES: CCCCOC(=O)CC [butyl propanoate] + CCCCCCCCCCC
- excess molar volume ([1]; x1 = 0.0439): 1.43e-07 ± 1.6e-08 m3/mol
- excess molar volume ([1]; x1 = 0.0844): 2.51e-07 ± 1.7e-08 m3/mol
- excess molar volume ([1]; x1 = 0.1613): 4.24e-07 ± 1.7e-08 m3/mol
- excess molar volume ([1]; x1 = 0.2331): 5.45e-07 ± 1.8e-08 m3/mol
- excess molar volume ([1]; x1 = 0.3029): 6.41e-07 ± 1.8e-08 m3/mol
- excess molar volume ([1]; x1 = 0.3719): 7.16e-07 ± 1.9e-08 m3/mol
- excess molar volume ([1]; x1 = 0.4347): 7.45e-07 ± 1.9e-08 m3/mol
- excess molar volume ([1]; x1 = 0.4991): 7.49e-07 ± 1.9e-08 m3/mol
- excess molar volume ([1]; x1 = 0.5571): 7.43e-07 ± 1.9e-08 m3/mol
- excess molar volume ([1]; x1 = 0.6136): 7.09e-07 ± 1.9e-08 m3/mol
- excess molar volume ([1]; x1 = 0.6682): 6.64e-07 ± 1.9e-08 m3/mol
- excess molar volume ([1]; x1 = 0.7205): 6.18e-07 ± 1.8e-08 m3/mol
- excess molar volume ([1]; x1 = 0.7715): 5.27e-07 ± 1.8e-08 m3/mol
- excess molar volume ([1]; x1 = 0.8193): 4.41e-07 ± 1.8e-08 m3/mol
- excess molar volume ([1]; x1 = 0.8661): 3.61e-07 ± 1.7e-08 m3/mol
- excess molar volume ([1]; x1 = 0.9118): 2.76e-07 ± 1.7e-08 m3/mol
- excess molar volume ([1]; x1 = 0.9546): 1.35e-07 ± 1.6e-08 m3/mol
- excess molar enthalpy ([2]; x1 = 0.0817): 0.0786 ± 0.00163 kcal/mol
- excess molar enthalpy ([2]; x1 = 0.1628): 0.132 ± 0.00239 kcal/mol
- excess molar enthalpy ([2]; x1 = 0.2473): 0.183 ± 0.00311 kcal/mol
- excess molar enthalpy ([2]; x1 = 0.325): 0.215 ± 0.00359 kcal/mol
- excess molar enthalpy ([2]; x1 = 0.3967): 0.234 ± 0.00406 kcal/mol
- excess molar enthalpy ([2]; x1 = 0.463): 0.243 ± 0.00406 kcal/mol
- excess molar enthalpy ([2]; x1 = 0.4868): 0.243 ± 0.00406 kcal/mol
- excess molar enthalpy ([2]; x1 = 0.5197): 0.243 ± 0.00406 kcal/mol
- excess molar enthalpy ([2]; x1 = 0.5243): 0.242 ± 0.00406 kcal/mol
- excess molar enthalpy ([2]; x1 = 0.5644): 0.239 ± 0.00406 kcal/mol
- excess molar enthalpy ([2]; x1 = 0.6091): 0.232 ± 0.00406 kcal/mol
- excess molar enthalpy ([2]; x1 = 0.6567): 0.224 ± 0.00382 kcal/mol
- excess molar enthalpy ([2]; x1 = 0.7051): 0.201 ± 0.00359 kcal/mol
- excess molar enthalpy ([2]; x1 = 0.7582): 0.175 ± 0.00311 kcal/mol
- excess molar enthalpy ([2]; x1 = 0.8113): 0.147 ± 0.00263 kcal/mol
- excess molar enthalpy ([2]; x1 = 0.8642): 0.114 ± 0.00215 kcal/mol
- excess molar enthalpy ([2]; x1 = 0.9137): 0.0779 ± 0.0016 kcal/mol
- excess molar enthalpy ([2]; x1 = 0.9601): 0.04 ± 0.00105 kcal/mol

SMILES: CCCCCCCCCCCCC [tridecane] + CCCOC(=O)CC
- excess molar volume ([1]; x2 = 0.1068): 3.54e-07 ± 1.7e-08 m3/mol
- excess molar volume ([1]; x2 = 0.2003): 6.1e-07 ± 1.8e-08 m3/mol
- excess molar volume ([1]; x2 = 0.2831): 7.8e-07 ± 1.9e-08 m3/mol
- excess molar volume ([1]; x2 = 0.3626): 8.99e-07 ± 2e-08 m3/mol
- excess molar volume ([1]; x2 = 0.4343): 9.83e-07 ± 2e-08 m3/mol
- excess molar volume ([1]; x2 = 0.4988): 1.001e-06 ± 2e-08 m3/mol
- excess molar volume ([1]; x2 = 0.5633): 1.013e-06 ± 2e-08 m3/mol
- excess molar volume ([1]; x2 = 0.6197): 9.68e-07 ± 2e-08 m3/mol
- excess molar volume ([1]; x2 = 0.6738): 9.29e-07 ± 2e-08 m3/mol
- excess molar volume ([1]; x2 = 0.7241): 8.44e-07 ± 1.9e-08 m3/mol
- excess molar volume ([1]; x2 = 0.7705): 7.66e-07 ± 1.9e-08 m3/mol
- excess molar volume ([1]; x2 = 0.8135): 6.6e-07 ± 1.9e-08 m3/mol
- excess molar volume ([1]; x2 = 0.8558): 5.36e-07 ± 1.8e-08 m3/mol
- excess molar volume ([1]; x2 = 0.8941): 4.18e-07 ± 1.7e-08 m3/mol
- excess molar volume ([1]; x2 = 0.9306): 2.67e-07 ± 1.7e-08 m3/mol
- excess molar volume ([1]; x2 = 0.9641): 1.43e-07 ± 1.6e-08 m3/mol
- excess molar enthalpy ([2]; x2 = 0.0771): 0.0824 ± 0.00167 kcal/mol
- excess molar enthalpy ([2]; x2 = 0.1623): 0.154 ± 0.00287 kcal/mol
- excess molar enthalpy ([2]; x2 = 0.248): 0.217 ± 0.00382 kcal/mol
- excess molar enthalpy ([2]; x2 = 0.3288): 0.264 ± 0.00454 kcal/mol
- excess molar enthalpy ([2]; x2 = 0.4032): 0.294 ± 0.00502 kcal/mol
- excess molar enthalpy ([2]; x2 = 0.471): 0.31 ± 0.00526 kcal/mol
- excess molar enthalpy ([2]; x2 = 0.5295): 0.315 ± 0.00526 kcal/mol
- excess molar enthalpy ([2]; x2 = 0.5719): 0.311 ± 0.00526 kcal/mol
- excess molar enthalpy ([2]; x2 = 0.5818): 0.308 ± 0.00502 kcal/mol
- excess molar enthalpy ([2]; x2 = 0.6224): 0.298 ± 0.00502 kcal/mol
- excess molar enthalpy ([2]; x2 = 0.6662): 0.283 ± 0.00478 kcal/mol
- excess molar enthalpy ([2]; x2 = 0.7127): 0.261 ± 0.0043 kcal/mol
- excess molar enthalpy ([2]; x2 = 0.7593): 0.232 ± 0.00406 kcal/mol
- excess molar enthalpy ([2]; x2 = 0.8089): 0.199 ± 0.00359 kcal/mol
- excess molar enthalpy ([2]; x2 = 0.8585): 0.161 ± 0.00287 kcal/mol
- excess molar enthalpy ([2]; x2 = 0.9084): 0.114 ± 0.00217 kcal/mol
- excess molar enthalpy ([2]; x2 = 0.9562): 0.0607 ± 0.00139 kcal/mol

SMILES: CCCCCCCCCCCCCCC [pentadecane] + CCCCOC(=O)CC
- excess molar volume ([1]; x2 = 0.0505): 1.65e-07 ± 1.6e-08 m3/mol
- excess molar volume ([1]; x2 = 0.0965): 3.01e-07 ± 1.7e-08 m3/mol
- excess molar volume ([1]; x2 = 0.197): 5.5e-07 ± 1.8e-08 m3/mol
- excess molar volume ([1]; x2 = 0.2885): 7.14e-07 ± 1.9e-08 m3/mol
- excess molar volume ([1]; x2 = 0.372): 8.22e-07 ± 1.9e-08 m3/mol
- excess molar volume ([1]; x2 = 0.4383): 8.58e-07 ± 1.9e-08 m3/mol
- excess molar volume ([1]; x2 = 0.5036): 8.89e-07 ± 2e-08 m3/mol
- excess molar volume ([1]; x2 = 0.5649): 8.8e-07 ± 2e-08 m3/mol
- excess molar volume ([1]; x2 = 0.6245): 8.56e-07 ± 1.9e-08 m3/mol
- excess molar volume ([1]; x2 = 0.6765): 8.1e-07 ± 1.9e-08 m3/mol
- excess molar volume ([1]; x2 = 0.7278): 7.63e-07 ± 1.9e-08 m3/mol
- excess molar volume ([1]; x2 = 0.7734): 6.88e-07 ± 1.9e-08 m3/mol
- excess molar volume ([1]; x2 = 0.817): 5.89e-07 ± 1.8e-08 m3/mol
- excess molar volume ([1]; x2 = 0.8567): 4.91e-07 ± 1.8e-08 m3/mol
- excess molar volume ([1]; x2 = 0.897): 3.82e-07 ± 1.7e-08 m3/mol
- excess molar volume ([1]; x2 = 0.9328): 2.79e-07 ± 1.7e-08 m3/mol
- excess molar volume ([1]; x2 = 0.9665): 1.56e-07 ± 1.6e-08 m3/mol
- excess molar enthalpy ([2]; x2 = 0.0761): 0.0789 ± 0.00163 kcal/mol
- excess molar enthalpy ([2]; x2 = 0.1691): 0.151 ± 0.00263 kcal/mol
- excess molar enthalpy ([2]; x2 = 0.2538): 0.211 ± 0.00359 kcal/mol
- excess molar enthalpy ([2]; x2 = 0.3371): 0.253 ± 0.0043 kcal/mol
- excess molar enthalpy ([2]; x2 = 0.4082): 0.279 ± 0.00478 kcal/mol
- excess molar enthalpy ([2]; x2 = 0.4663): 0.291 ± 0.00478 kcal/mol
- excess molar enthalpy ([2]; x2 = 0.5154): 0.294 ± 0.00502 kcal/mol
- excess molar enthalpy ([2]; x2 = 0.5563): 0.292 ± 0.00502 kcal/mol
- excess molar enthalpy ([2]; x2 = 0.5938): 0.288 ± 0.00478 kcal/mol
- excess molar enthalpy ([2]; x2 = 0.6011): 0.287 ± 0.00478 kcal/mol
- excess molar enthalpy ([2]; x2 = 0.6427): 0.276 ± 0.00454 kcal/mol
- excess molar enthalpy ([2]; x2 = 0.6861): 0.262 ± 0.0043 kcal/mol
- excess molar enthalpy ([2]; x2 = 0.7321): 0.242 ± 0.00406 kcal/mol
- excess molar enthalpy ([2]; x2 = 0.7784): 0.215 ± 0.00359 kcal/mol
- excess molar enthalpy ([2]; x2 = 0.8262): 0.18 ± 0.00311 kcal/mol
- excess molar enthalpy ([2]; x2 = 0.8732): 0.142 ± 0.00263 kcal/mol
- excess molar enthalpy ([2]; x2 = 0.9184): 0.0978 ± 0.00194 kcal/mol
- excess molar enthalpy ([2]; x2 = 0.9612): 0.0508 ± 0.00124 kcal/mol
